Source: US8313766B2, “Oral antidepressant formulation with reduced excipient load” (priority 2010, dated 2012)
Values after ≈ are worked out from the molar mass of the structure shown.

Tests used:
[1] = human plasma, oral dose of 200 mg in a capsule with food; cited from earlier work
[2] = Solubility of CX-157 in water (descriptive statement); type: physicochemical
[3] = CX-157 solubility in candidate solvents, test tube method; type: physicochemical; conditions: organic solvent or mixture, thermodynamic from solid, CX-157 Form A
Procedure: Ethanol, acetone and methylene chloride were selected and tested as candidate solvents. CX-157 solubility in the solvent was performed using a test tube method. A specific amount of CX-157 (Form A: disclosed in U.S. Pat. Pub. No. 2008/0009542 herein incorporated by reference in it entirety) was added into 1 mL test solvent and the sample was agitated vigorously by a Beadbeater (BB). If CX-157 was completely soluble in 1 mL of test solvent, additional CX-157 was added until excess solid was present. The solubility (mg/mL) of CX-157 was calculated by the amount (mass) of CX-157 added to the test solvent (1 mL). Acetone had the highest solubility of the solvents tested with a solubility of from about 60 mg/mL to about 80 mg/mL at room temperature.

Row | SMILES | Tmax [1] | time after dosing at which non-detectable levels observed [1] | solubility in water [2] | solubility ([3]; solvent acetone, at room temperature) | solubility ([3]; solvent ethanol, at 60° C.) | solubility ([3]; solvent methylene chloride, at room temperature)
1 | NCCc1ccc(O)cc1 [tyramine] | ≤ 1.25 h | 3 to 4 h |  |  |  | 
2 | O=S1(=O)c2ccc(F)cc2Oc2cc(OCC(F)(F)F)ccc21 [CX-157, 3-fluoro-7-(2,2,2-trifluoroethoxy)phenoxathiin 10,10-dioxide] |  |  | only sparing solubility | 60 to 80 mg/mL (≈ 172 to 230 mM) | < 10 mg/mL | < 20 mg/mL
